Laboratory results from patent publication US11884750B2, “Cationic cell penetrating peptides and the use thereof” (CELLTROY CO., LTD., priority 2021, dated 2024).

Experiments:
macrophages = experiment: Cell penetration efficiency using macrophages; format: cell-based; settings: macrophages differentiated from THP1 cells, 4 μM FITC-conjugated CPP, one hour
SNU-46 cell line = experiment: Cell penetration efficiency using laryngeal cells; format: cell-based; settings: SNU-46 laryngeal cells, 4 μM FITC-conjugated CPP, one hour
Outline: (§1)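 24 h culture, 10% FBS, 37 °C, 5% CO2 → 4 μM FITC-CPP or FITC-TAT, 1 h → 0.25% trypsin, D-PBS wash ×2 → flow cytometry of intracellular fluorescence.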

monocytes = experiment: Cell penetration efficiency using monocytes; format: cell-based; settings: 4 μM FITC-conjugated CPP, one hour
Outline: as §1

SH-SY5Y cells = experiment: Cell penetration efficiency in human neuroblastoma cells, 4 μM, flow cytometry; format: cell-based; settings: one hour; for cell permeability compared with TAT: 4 μM FITC-conjugated CPP, flow cytometry; for Score / Score/TAT: 4 μM FITC-conjugated peptide; for Score: intracellular fluorescence by flow cytometry; for Score/TAT: ratio to FITC-conjugated TAT
Outline: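 SH-SY5Y cells cultured 24 h in DMEM/10% FBS at 37 °C, 5% CO2, then exposed to 4 μM FITC-conjugated peptide (FITC-TAT as reference) for 1 h. After trypsinisation and D-PBS washes, intracellular fluorescence measured by flow cytometry.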

HT1080 cell line = experiment: Cell penetration efficiency using connective tissue (fibrosarcoma) cells; format: cell-based; settings: 4 μM FITC-conjugated CPP, one hour
Outline: as §1

HGB cell line = experiment: Cell penetration efficiency in glioblastoma cells; format: cell-based, human; settings: 4 μM FITC-conjugated CPP, one hour
Outline: as §1

A-427 cell line = experiment: Cell penetration efficiency using lung cells; format: cell-based; settings: A-427 lung cells, 4 μM FITC-conjugated CPP, one hour
Outline: as §1

HEK293T cell line = experiment: Cell penetration efficiency using kidney cells; format: cell-based; settings: 4 μM FITC-conjugated CPP, one hour
Outline: as §1

HepG2 cell line = experiment: Cell penetration efficiency using liver cells; format: cell-based; settings: 4 μM FITC-conjugated CPP, one hour
Outline: as §1

HaCAT cells = experiment: Cell penetration efficiency in human epidermal (skin) cells, 4 μM, flow cytometry; format: cell-based; settings: 4 μM FITC-conjugated CPP, one hour
Outline: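 HaCAT cells […] were grown 24 h in DMEM with 10% FBS at 37 °C, then treated 1 h with 4 μM FITC-conjugated peptide or FITC-TAT. Cells were trypsinised and washed in D-PBS. Intracellular fluorescence was read by flow cytometry.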

HeLa cell line = experiment: Cell penetration efficiency using cervical cancer cells; format: cell-based; settings: 4 μM FITC-conjugated CPP, one hour
Outline: as §1

HDF cell line = experiment: Cell penetration efficiency in skin cells (HDF); format: cell-based; settings: 4 μM FITC-conjugated CPP, one hour
Outline: as §1

Row | Sequence | cell permeability compared with TAT (macrophages) | cell permeability compared with TAT (SNU-46 cell line) | cell permeability compared with TAT (monocytes) | cell permeability compared with TAT (SH-SY5Y cells) | Score (SH-SY5Y cells) | Score/TAT (SH-SY5Y cells) | cell permeability compared with TAT (HT1080 cell line) | cell permeability compared with TAT (HGB cell line) | cell permeability compared with TAT (A-427 cell line) | cell permeability compared with TAT (HEK293T cell line) | cell permeability compared with TAT (HepG2 cell line) | cell permeability compared with TAT (HaCAT cells) | cell permeability compared with TAT (HeLa cell line) | cell permeability compared with TAT (HDF cell line)
1 | LVPRRLRRRARRRK [C179] | higher cell permeability | higher cell permeability | higher cell permeability | higher cell permeability | 2076 | 4.000 | higher cell permeability | higher cell permeability | higher cell permeability | higher cell permeability | higher cell permeability | higher cell permeability | higher cell permeability | higher cell permeability
2 | WPRRRLRLRHRARR [C113] | higher cell permeability | higher cell permeability | higher cell permeability | higher cell permeability | 1278 | 2.462 | higher cell permeability | higher cell permeability | higher cell permeability | higher cell permeability | higher cell permeability | higher cell permeability | higher cell permeability | higher cell permeability
